In this experiment the test system is Acinetobacter baumannii ATCC17978. Nature of the experiment: Antimicrobial susceptibility testing: 90% growth inhibitory concentration (IC90) determination, Iso-Sensitest broth. Format: cell-based. The gist of the method: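 A. baumannii ATCC17978 grown in Iso-Sensitest broth across 10 compound concentrations at 35±2 °C.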
Setting [1] is: 90% growth inhibitory concentration, Acinetobacter baumannii ATCC17978, Iso-Sensitest broth, OD 600 nm over 16 h, read-out: ATCC17978 IC90.
Setting [2] is: Acinetobacter baumannii, ATCC17978, 16 h, read-out: ATCC17978 IC90, 90% growth inhibitory concentration, Acinetobacter baumannii ATCC17978, Iso-Sensitest broth, OD 600 nm over 16 h.

Structures can show the parent of a compound that is named as a salt. Where two headings read alike, the source gives them in different places.

Drawing on patent US20230011869A1 (Hoffmann-La Roche Inc., priority 2018, published 2023), this text covers IC90 for 18 compounds.

Take `COc1ccc(-c2cnc3c(Nc4ccc(C(=O)N5CCC(C(=O)N6CCNC(C(=O)O)C6)CC5)c(C)c4)nccn23)c(F)c1F` (stereo not drawn) [Example 266, 4-[1-[4-[[3-(2,3-difluoro-4-methoxyphenyl)imidazo[1,2-a]pyrazin-8-yl]amino]-2-methylbenzoyl]piperidine-4-carbonyl]piperazine-2-carboxylic acid]: under setting [1], the IC90 stood at 1100 nM.

Regarding `Cc1cc(Nc2nccn3c(-c4ccc(OC(F)F)cc4)cnc23)ccc1C(=O)N1CCN(C(=O)C[C@H](C)N)CC1` [Example 327, (3S)-3-amino-1-[4-[4-[[3-[4-(difluoromethoxy)phenyl]imi-dazo[1,2-a]pyrazin-8-yl]amino]-2-methylbenzoyl]piperazin-1-yl]butan-1-one; hydrochloride], under setting [2], the IC90 stood at 380 nM.

`COc1ccc(-c2cnc3c(Nc4ccc(C(=O)N5CCC(C(=O)NCCN6CCC6)CC5)c(C)c4)nccn23)cc1F` [Example 61, N-(2-(azetidin-1-yl)ethyl)-1-(4-((3-(3-fluoro-4-methoxyphenyl)imidazo[1,2-a]pyrazin-8-yl)amino)-2-methylbenzoyl)piperidine-4-carboxamide]: the IC90 under setting [1] worked out at 180 nM.

`COc1ccc(-c2cnc3c(Nc4ccc(C(=O)N5CCC(C(=O)NCC(O)CN6CCCC6)CC5)c(C)c4)nccn23)cc1F` (stereo not drawn) [Example 568, 1-(4-((3-(3-fluoro-4-methoxyphenyl)imidazo[1,2-a]pyrazin-8-yl)amino)-2-methylbenzoyl)-N-(2-hydroxy-3-(pyrrolidin-1-yl)propyl)piperidine-4-carboxamide]: under setting [1], the IC90 was found to be 229 nM.

Turning to `Cc1cc(Nc2nccn3c(-c4ccc(OC(F)F)cc4)cnc23)ccc1C(=O)N1CCN(C(=O)CN(C)C)CC1` [Example 38, 1-(4-(4-((3-(4-(difluoromethoxy)phenyl)imidazo[1,2-a]pyrazin-8-yl)amino)-2-methylbenzoyl)piperazin-1-yl)-2-(dimethylamino)ethanone], the IC90 under setting [1] turned out to be 220 nM.

Consider `Cc1cc(Nc2nccn3c(-c4ccc(OC(F)F)cc4)cnc23)ccc1C(=O)N1CCC(Cn2cnnc2)CC1` [Example 354, [4-[[3-[4-(difluoromethoxy)phenyl]imi-dazo[1,2-a]pyrazin-8-yl]amino]-2-methylphenyl]-[4-(1,2,4-triazol-4-ylmethyl)piperidin-1-yl]methanone], for which, under setting [2], the IC90 is 240 nM.

In the case of `Cc1cc(Nc2nccn3c(-c4ccc(O[C@H](C)C#N)c(F)c4F)cnc23)ccc1C(=O)N1CCN(C(=O)[C@@H]2C[C@@H](O)CN2)CC1` [Example 559, (2R)-2-[2,3-difluoro-4-[8-[4-[4-[(2S,4R)-4-hydroxypyrrolidine-2-carbonyl]piperazine-1-carbonyl]-3-methyl-anilino]imidazo[1,2-a]pyrazin-3-yl]phenoxy]propanenitrile formate], the IC90 under setting [2] came out at 699 nM.

Turning to `Cc1cc(Nc2nccn3c(-c4ccc(OC(F)F)cc4)cnc23)ccc1C(=O)N1CCN(C(=O)C2(C#N)CCNCC2)CC1` [Example 517, 4-[4-[4-[[3-[4-(difluoromethoxy)phenyl]imi-dazo[1,2-a]pyrazin-8-yl]amino]-2-methylbenzoyl]piperazine-1-carbonyl]piperidine-4-carbonitrile; hydrochloride], under setting [2], the IC90 was 660 nM.

`COc1ccc(-c2cnc3c(Nc4ccc(C(=O)N5CCC(C(=O)NCc6ccc(C(=O)O)cc6)CC5)c(C)c4)nccn23)cc1F` [Example 427, 4-[[[1-[4-[[3-(3-fluoro-4-methoxyphenyl)imidazo[1,2-a]pyrazin-8-yl]amino]-2-methylbenzoyl]piperidine-4-carbonyl]amino]methyl]ben-zoic acid]: the IC90 under setting [1] was 1200 nM.

As to `Cc1cc(Nc2nccn3c(-c4ccc(OC(F)F)cc4)cnc23)ccc1C(=O)N1CCN(C(=O)[C@H]2NCC[C@H]2O)CC1` [Example 512, [4-[[3-[4-(difluoromethoxy)phenyl]imi-dazo[1,2-a]pyrazin-8-yl]amino]-2-methylphenyl]-[4-[(2S,3R)-3-hydroxypyrrolidine-2-carbonyl]piperazin-1-yl]methanone; hydrochloride], the IC90 under setting [2] is 570 nM.

With `COc1ccc(-c2cnc3c(Nc4ccc(C(=O)N5CCN(C(=O)[C@@H]6CCNC[C@H]6O)CC5)c(C)c4)nccn23)c(Cl)c1F` [Example 216, [4-[[3-(2-chloro-3-fluoro-4-methoxy-phenyl)imidazo[1,2-a]pyrazin-8-yl]amino]-2-methyl-phenyl]-[4-[(3S,4R)-3-hydroxypiperidine-4-carbonyl]piperazin-1-yl]methanone formate], the IC90 under setting [1] is 190 nM.

Regarding `CCc1cc(Nc2nccn3c(-c4ccc(OC)c(F)c4)cnc23)ccc1C(=O)N1CCC(CN)CC1` [Example 386, [4-(aminomethyl)piperidin-1-yl]-[2-ethyl-4-[[3-(3-fluoro-4-methoxyphenyl)imidazo[1,2-a]pyrazin-8-yl]amino]phenyl]methanone; formic acid], the IC90 under setting [2] worked out at 180 nM.

In the case of `COc1ccc(-c2cnc3c(Nc4ccc(C(=O)N5CCC(CN)CC5)c(C(F)F)c4)nccn23)cc1F` [Example 340, [4-(aminomethyl)piperidin-1-yl]-[2-(difluoromethyl)-4-[[3-(3-fluoro-4-methoxyphenyl)imidazo[1,2-a]pyrazin-8-yl]amino]phenyl]methanone], the IC90 under setting [1] was determined as 500 nM.

As to `COc1ccc(-c2cnc3c(Nc4ccc(C(=O)N5CCC(C(=O)NCC6(O)CCNC6)CC5)c(C)c4)nccn23)c(F)c1F` (stereo not drawn) [Example 286, 1-[4-[[3-(2,3-difluoro-4-methoxyphenyl)imidazo[1,2-a]pyrazin-8-yl]amino]-2-methylbenzoyl]-N-[(3-hydroxypyrrolidin-3-yl)methyl]piperidine-4-carboxamide; hydrochloride], the IC90 under setting [2] is 73 nM.

In the case of `Cc1cc(Nc2nccn3c(-c4ccc(OC(F)F)cc4)cnc23)ccc1C(=O)N1CCN(C(=O)NC[C@H](C)N)CC1` [Example 151, N-[(2S)-2-aminopropyl]-4-[4-[[3-[4-(difluoromethoxy)phenyl]imidazo[1,2-a]pyrazin-8-yl]amino]-2-methyl-benzoyl]piperazine-1-carboxamide hydrochloride], under setting [1], the IC90 stood at 140 nM.

In the case of `COc1ccc(-c2cnc3c(Nc4ccc(C(=O)N5CCN(C6CNC6)CC5)c(C)c4)nccn23)cc1F` [Example 73, (4-(azetidin-3-yl)piperazin-1-yl)(4-((3-(3-fluoro-4-methoxyphenyl)imidazo[1,2-a]pyrazin-8-yl)amino)-2-methylphenyl)methanone hydrochloride], under setting [1], the IC90 amounted to 330 nM.

For the compound `CNCC(=O)N1CCN(C(=O)c2ccc(Nc3nccn4c(-c5ccc(OC)c(Cl)c5)cnc34)cc2C)CC1` [Example 322, 1-[4-[4-[[3-(3-chloro-4-methoxyphenyl)imidazo[1,2-a]pyrazin-8-yl]amino]-2-methylbenzoyl]piperazin-1-yl]-2-(methylamino)ethanone; hy-drochloride], the IC90 under setting [1] worked out at 280 nM.

As to `Cc1cc(Nc2nccn3c(-c4ccc(OC(F)F)cc4)cnc23)ccc1C(=O)N1CCC(Cn2ccnc2)CC1` [Example 353, [4-[[3-[4-(difluoromethoxy)phenyl]imi-dazo[1,2-a]pyrazin-8-yl]amino]-2-methylphenyl]-[4-(imidazol-1-ylmethyl)piperidin-1-yl]methanone], the IC90 under setting [2] was found to be 240 nM.
